Tests used:
[1] = Tests of stability towards UV radiation: water-in-oil preparation on a quartz slide, UVA absorbance monitored under solar irradiation; assay type: physicochemical; settings: for Variation in the absorbance at 356 nm: water-in-oil preparation on quartz slide; for photostability compared with Parsol 1789: solar irradiation of preparations; for decrease in UVA absorbance: preparation with 1% by mass of screening agents; for decrease of the absorbance at 356 nm: mean UV flux 4 mW/cm^2
Text: By way of example, the changes under irradiation of a base preparation (water-in-oil emulsion) containing the compounds obtained in the above examples, i.e. compound C10 and compound O10, are compared with that of the same preparation containing Parsol 1789 (mass % equivalent for each screening agent).
By way of example, the chosen preparations may be composed as follows:
Glycasil L 0.19%, butyl paraben 0.3%, beeswax 4%, PEG-30 dipolyhydroxystearate 3%, dicapryl carbonate 10%, polyglyceryl-3-diisostearate 1.5%, water 78.64%, xanthan gum 1%, Na2EDTA 0.2%, NaCI 1%; methyl paraben 0.17%
To this common base is added, depending on the case, the compounds C10 or O10 or Parsol 1789 in equivalent mass %. 15 to 20 mg of these preparations are spread onto a quartz slide and the UVA absorbance of the slide is monitored over time under solar irradiation (in the month of June at 43° latitude north between 13.00 h and 16.00 h, mean flux of the solar UV radiation: 4 mW/cm^2, Oriel 70380 UV Radiometer—response between 280 nm and 400 nm with a maximum at 370 nm)). The absorbance at 356 nm of the plate with Parsol 1789 decreases by 51% in 1 hour and by 73% in 2 hours. In the same time, the plates that received compound O10 have an absorbance that increases by 16% in 1 hour and 19% in 2 hours. […]

[2] = UV absorption (absorption maximum, molar extinction coefficient) in solution; assay type: physicochemical
Text: As an illustration of these ultraviolet-absorbing capacities, measurements were taken for two dibenzoylmethane derivatives according to the invention: • for a compound of formula (I) in which R1, R′1, R2, R′2, R3, R′3, R4, R′4 and R′5 each represent a hydrogen atom and R5 represents a saturated linear acyclic carbon-based chain containing 10 carbon atoms, the absorption maximum is (in solution in acetonitrile) at 263 nm with a molar extinction coefficient of 20 000 I.cm^−1.mol^−1. This compound will be referred to hereinbelow as compound C10; • for a compound of formula (I) in which R1, R′1, R2, R′2, R3, R′3, R4, R′4 and R5 each represent a hydrogen atom and R′5 represents a saturated linear acyclic carbon-based chain containing 10 carbon atoms, the absorption maximum (in solution in acetonitrile) is at 302 nm with a molar extinction coefficient of 17 000 I.cm^−1.mol^−1.
This is likewise the case for compound C10. Furthermore, in organized medium, these two compounds, subjected to ultraviolet radiation, undergo a shift of their maximum absorbance wavelength from UVB to UVA, thus causing the same effect as organization of the system. As a result, the maximum shift of the absorption bands towards UVA is obtained by placing these compounds in organized medium under irradiation, as is the case for an antisun cosmetic preparation under the normal conditions of its use. Irradiation of the preparation amplifies the phenomenon induced by the medium in which the compounds are present. There are therefore two screening molecules present, the absorbing power of which appears in its entirety only when they are subjected to ultraviolet exposure, in an organized medium. The protection capacity of a preparation containing them should thus increase during exposure, rather than decrease, which is the case for preparations containing Parsol 1789 as sole UV-screening agent. This increase in the absorbance at the start of exposure makes it possible to maintain a maximum level of protection for longer.
The NMR spectra were acquired using a Bruker ARX 400 MHz machine. […]

[3] = background statement on the reference screening agent; cited from earlier work

| Structure (SMILES) | absorbance after 2 hours of exposure to sunlight versus initial absorbance ([1]; 2 hours of solar irradiation, compared with before irradiation) | Variation in the absorbance at 356 nm ([1]; Irradiation 1 hour solar UV) | Variation in the absorbance at 356 nm ([1]; Irradiation 2 hours solar UV) | absorbance change during the first hour of exposure to sunlight ([1]; first hour of solar irradiation) | decrease of the absorbance during the second hour ([1]; relative to the maximum achieved after 1 hour of irradiation) [%] | photostability compared with Parsol 1789 [1] | absorption maximum ([2]; in solution in acetonitrile) [nm] | molar extinction coefficient ([2]; in solution in acetonitrile, at the absorption maximum) | absorption maximum in the UVA range (solvatochromy) ([2]; organized solvents, e.g. micellar solutions of sodium dodecyl sulfate) | decrease in UVA absorbance ([1]; after 2 hours solar irradiation) [%] | decrease of the absorbance at 356 nm ([1]; in 1 hour solar irradiation) [%] | decrease in UVA absorbance ([1]; in 1 hour solar irradiation) [%] | decrease of the absorbance at 356 nm ([1]; in 2 hours solar irradiation) [%] | maximum absorption efficacy (wavelength) [3] |
| --- | --- | --- | --- | --- | --- | --- | --- | --- | --- | --- | --- | --- | --- | --- |
| CCCCCCCCCCC(C(=O)c1ccc(OC)cc1)C(=O)c1ccc(C(C)(C)C)cc1 (centres unmarked) [compound C10, 3-(4-tert-butylphenyl)-2-decanyl-1-(4-methoxyphenyl)propane-1,3-dione] | remains markedly higher than its initial absorbance | +400% | +264% | increases greatly | 27 | much more photostable than Parsol 1789 | 263 | 20 000 I.cm^−1.mol^−1 | about 360 nm | – | – | – | – | – |
| COc1ccc(C(=O)CC(=O)c2ccc(C(C)(C)C)cc2)cc1 [Parsol 1789, 4-tert-butyl-4′-methoxydibenzoylmethane, reference compound] | – | −51% | −73% | – | – | – | – | – | – | 73 | 51 | 51 | 73 | about 340 nm |
| CCCCCCCCCCO/C(=C\C(=O)c1ccc(OC)cc1)c1ccc(C(C)(C)C)cc1 [compound O10, 3-(4-tert-butylphenyl)-3-decanoxy-1-(4-methoxy-phenyl) prop-2-ene-1-one] | – | – | – | – | – | much more photostable than Parsol 1789 | – | – | – | – | – | – | – | – |
